Data: ChEMBL document CHEMBL1154080, “2D-QSAR and 3D-QSAR/CoMFA analyses of the N-terminal substituted anthranilic acid based CCK(1) receptor antagonists: 'Hic Rhodus, hic saltus'” (Bioorg Med Chem, 2009)

How the values were obtained:
[1] = (§1) Displacement of [125I]-CCK8 from CCK2 receptor in guinea pig cerebral cortex; type: tissue-based, Cavia porcellus
[2] = target: T1, Cholecystokinin receptor type A (Rattus norvegicus, UniProt P30551); assay: Displacement of [125I]-CCK8 from CCK1 receptor in rat pancreatic acinar cells
T1 sequence (P30551 whole entry): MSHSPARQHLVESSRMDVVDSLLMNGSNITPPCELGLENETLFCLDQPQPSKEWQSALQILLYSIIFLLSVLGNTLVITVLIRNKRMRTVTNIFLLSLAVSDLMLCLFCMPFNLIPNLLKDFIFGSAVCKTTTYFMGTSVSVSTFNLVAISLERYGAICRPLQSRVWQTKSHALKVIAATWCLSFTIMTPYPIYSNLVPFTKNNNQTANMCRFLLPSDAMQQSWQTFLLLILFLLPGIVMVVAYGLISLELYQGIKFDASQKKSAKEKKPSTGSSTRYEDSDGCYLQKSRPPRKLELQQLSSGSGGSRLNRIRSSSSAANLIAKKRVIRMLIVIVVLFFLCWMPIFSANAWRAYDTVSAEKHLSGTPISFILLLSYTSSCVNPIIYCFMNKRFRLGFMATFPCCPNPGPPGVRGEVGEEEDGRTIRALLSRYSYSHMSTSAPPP

Cavia porcellus [3] = species on record: Cavia porcellus; assay: as §1; type: tissue-based; conditions: concentration not given here
Cavia porcellus [4] = species on record: Cavia porcellus; assay: Displacement of [125I]-CCK8 from CCK2 receptor in guinea pig cerebral cortex at 30 uM; type: tissue-based
[5] = target: T2, Cholecystokinin receptor type A (Rattus norvegicus) (UniProt P30551); assay: Displacement of [125I]-CCK8 from CCK1 receptor in rat pancreatic acinar cells 10 uM
T2 sequence (whole entry): T1 sequence (P30551 whole entry)

[6] = target: T2, Cholecystokinin receptor type A (Rattus norvegicus); assay: Displacement of [125I]-CCK8 from CCK1 receptor in rat pancreatic acinar cells at 3 uM
Cavia porcellus [7] = species on record: Cavia porcellus; assay: Displacement of [125I]-CCK8 from CCK2 receptor in guinea pig cerebral cortex at 10 uM; type: tissue-based
Cavia porcellus [8] = species on record: Cavia porcellus; assay: Displacement of [125I]-CCK8 from CCK2 receptor in guinea pig cerebral cortex at 3 uM; type: tissue-based
[9] = target: T2, Cholecystokinin receptor type A (Rattus norvegicus); assay: Displacement of [125I]-CCK8 from CCK1 receptor in rat pancreatic acinar cells 30 uM
[10] = target: T2, Cholecystokinin receptor type A (Rattus norvegicus); assay: Displacement of [125I]-CCK8 from CCK1 receptor in rat pancreatic acinar cells at 1 uM

Row | SMILES | IC50 [1] [µM] | IC50 [2] [µM] | further results
1 | O=C(Nc1ccccc1C(=O)N[C@H](Cc1ccccc1)C(=O)O)c1cc2cc(F)ccc2[nH]1 | 67.9 | 0.151 | 
2 | O=C(Nc1ccccc1C(=O)N[C@H](Cc1ccccc1)C(=O)O)c1cc2cccc(F)c2[nH]1 | 19.8 | 0.055 | 
3 | O=C(Nc1ccccc1C(=O)N[C@@H](Cc1ccccc1)C(=O)O)c1cc2ccccc2[nH]1 |  | 10.2 | inhibition (Cavia porcellus [3]): 52%
4 | O=C(Nc1ccccc1C(=O)N[C@@H](Cc1ccccc1)C(=O)O)c1cc2cccc(F)c2[nH]1 | 8.9 | 3.55 | 
5 | O=C(Nc1ccccc1C(=O)N[C@@H](Cc1ccccc1)C(=O)O)c1cc2cc(F)ccc2[nH]1 |  | 30.1 | inhibition (Cavia porcellus [4]): 20%
6 | O=C(Nc1ccccc1C(=O)N[C@H](Cc1ccccc1)C(=O)O)c1cc2ccccc2[nH]1 | 17 | 0.106 | 
7 | O=C(Nc1ccccc1C(=O)NC(Cc1ccccc1)C(=O)O)c1cc2ccccc2[nH]1 (racemic) | 16.4 |  | 
8 | O=C(/C=C/c1ccccc1)Nc1ccccc1C(=O)NC(Cc1ccccc1)C(=O)O (racemic) |  |  | inhibition (Cavia porcellus [4]): 49%
9 | Cn1c(C(=O)Nc2ccccc2C(=O)NC(Cc2ccccc2)C(=O)O)cc2ccccc21 (racemic) | 10 |  | 
10 | O=C(Nc1ccccc1C(=O)NC(Cc1ccccc1)C(=O)O)C1=CC2CCCC2N1 (racemic) | 60.5 | 13.1 | 
11 | O=C(Nc1ccccc1C(=O)NC(Cc1ccccc1)C(=O)O)c1cc2cc(Cl)ccc2[nH]1 (racemic) |  | 1.84 | inhibition (Cavia porcellus [4]): 31%
12 | O=C(Nc1ccccc1C(=O)NC(Cc1ccccc1)C(=O)O)c1cc2cc([N+](=O)[O-])ccc2[nH]1 (racemic) |  | 3.55 | inhibition (Cavia porcellus [4]): 31%
13 | O=C(Nc1ccccc1C(=O)NC(Cc1ccccc1)C(=O)O)c1cc2cc(F)ccc2[nH]1 (racemic) | 10.6 | 0.314 | 
14 | O=C(Nc1ccccc1C(=O)NC(Cc1ccccc1)C(=O)O)c1cc2c([nH]1)CCCC2 (racemic) | 70 |  | 
15 | O=C(Nc1ccccc1C(=O)NC(Cc1ccccc1)C(=O)O)c1ccc2ccccc2n1 (racemic) | 14.6 |  | inhibition [5]: 48%
16 | O=C(NC(Cc1ccccc1)C(=O)O)c1ccccc1NC(=O)c1ccnc2ccccc12 (racemic) | 15 |  | inhibition [6]: < 20%
17 | O=C(Nc1ccccc1C(=O)NC(Cc1ccccc1)C(=O)O)C1=Cc2ccccc2C1 (racemic) |  |  | inhibition (Cavia porcellus [7]): < 20%
18 | O=C(CCc1c[nH]c2ccccc12)Nc1ccccc1C(=O)NC(Cc1ccccc1)C(=O)O (racemic) | 13.4 |  | 
19 | O=C(Nc1ccccc1C(=O)NC(Cc1ccccc1)C(=O)O)c1cc2cccc(C(F)(F)F)c2[nH]1 (racemic) | 11.2 | 0.538 | 

Row | SMILES | IC50 [1] [µM] | IC50 [2] [µM] | further results
20 | Cn1c(C(=O)Nc2ccccc2C(=O)NC(Cc2ccccc2)C(=O)O)cc2cc([N+](=O)[O-])ccc21 (racemic) |  | 1.11 | inhibition (Cavia porcellus [8]): < 20%
21 | O=C(NC(Cc1ccccc1)C(=O)O)c1ccccc1NS(=O)(=O)c1cccc2ccccc12 (racemic) | 5.9 |  | inhibition [5]: < 20%
22 | O=C(CC12CC3CC(CC(C3)C1)C2)Nc1ccccc1C(=O)NC(Cc1ccccc1)C(=O)O (racemic) | 15.4 |  | inhibition [9]: 51%
23 | O=C(Nc1ccccc1C(=O)NC(Cc1ccccc1)C(=O)O)c1nc2ccccc2[nH]1 (racemic) | 10.3 |  | 
24 | O=C(NC(Cc1ccccc1)C(=O)O)c1ccccc1NC(=O)c1nccc2ccccc12 (racemic) |  | 13.3 | inhibition (Cavia porcellus [4]): 53%
25 | O=C(Nc1ccccc1C(=O)NC(Cc1ccccc1)C(=O)O)c1cc2c(F)cccc2[nH]1 (racemic) | 9.6 | 0.937 | 
26 | O=C(Nc1ccccc1C(=O)NC(Cc1ccccc1)C(=O)O)c1cc2cc(F)cc(F)c2[nH]1 (racemic) | 9.4 |  | inhibition [5]: 59%
27 | O=C(Nc1ccccc1C(=O)NC(Cc1ccccc1)C(=O)O)c1cc2ccccc2s1 (racemic) | 10.8 |  | 
28 | O=C(NC(Cc1ccccc1)C(=O)O)c1ccccc1NS(=O)(=O)c1ccc2ccccc2c1 (racemic) | 7.31 |  | inhibition [5]: < 20%
29 | CC1=C(C(=O)Nc2ccccc2C(=O)NC(Cc2ccccc2)C(=O)O)Cc2ccccc21 (racemic) | 13.7 |  | 
30 | Cc1ccc2[nH]c(C(=O)Nc3ccccc3C(=O)NC(Cc3ccccc3)C(=O)O)cc2c1 (racemic) | 4.2 | 2.79 | 
31 | Cc1cccc2cc(C(=O)Nc3ccccc3C(=O)NC(Cc3ccccc3)C(=O)O)[nH]c12 (racemic) | 10.2 | 0.671 | 
32 | O=C(Nc1ccccc1C(=O)NC(Cc1ccccc1)C(=O)O)c1cnc2ccccc2c1 (racemic) | 18.7 |  | 
33 | O=C(NC(Cc1ccccc1)C(=O)O)c1ccccc1NC(=O)c1c[nH]c2ccccc12 (racemic) | 30.2 |  | 
34 | O=C(Nc1ccccc1C(=O)NC(Cc1ccccc1)C(=O)O)c1cccs1 (racemic) |  | 2.56 | inhibition (Cavia porcellus [4]): 24%
35 | O=C(NC(Cc1ccccc1)C(=O)O)c1ccccc1NC(=O)c1cccc2ccccc12 (racemic) | 6.57 |  | inhibition [5]: < 20%
36 | O=C(Nc1ccccc1C(=O)NC(Cc1ccccc1)C(=O)O)c1cc2cccc(F)c2[nH]1 (racemic) | 18.7 | 0.159 | 
37 | O=C(Nc1ccccc1C(=O)NC(Cc1ccccc1)C(=O)O)c1cc2ccc(F)cc2[nH]1 (racemic) | 36.8 | 0.294 | 
38 | O=C(NC(Cc1ccccc1)C(=O)O)c1ccccc1NC(=O)C12CC3CC(CC(C3)C1)C2 (racemic) | 14.5 |  | inhibition [5]: < 20%

Row | SMILES | IC50 [1] [µM] | IC50 [2] [µM] | further results
39 | COc1ccc2[nH]c(C(=O)Nc3ccccc3C(=O)NC(Cc3ccccc3)C(=O)O)cc2c1 (racemic) | 17.1 |  | inhibition [6]: 42%
40 | Cc1c(C(=O)Nc2ccccc2C(=O)NC(Cc2ccccc2)C(=O)O)[nH]c2ccccc12 (racemic) | 9.8 | 2.06 | 
41 | O=C(Nc1ccccc1C(=O)NC(Cc1ccccc1)C(=O)O)c1cc2ccccc2o1 (racemic) | 13.7 | 0.891 | 
42 | CC(C)(C)C(=O)Nc1ccccc1C(=O)NC(Cc1ccccc1)C(=O)O (racemic) |  |  | inhibition (Cavia porcellus [4]): 24%; inhibition [5]: < 20%
43 | CC(C)(C)CC(=O)Nc1ccccc1C(=O)NC(Cc1ccccc1)C(=O)O (racemic) |  |  | inhibition (Cavia porcellus [4]): 37%; inhibition [5]: < 20%
44 | COc1cc2cc(C(=O)Nc3ccccc3C(=O)NC(Cc3ccccc3)C(=O)O)[nH]c2cc1OC (racemic) |  |  | inhibition [10]: < 20%; inhibition (Cavia porcellus [8]): < 20%
45 | Cn1cccc1C(=O)Nc1ccccc1C(=O)NC(Cc1ccccc1)C(=O)O (racemic) |  |  | inhibition [6]: 21%
46 | O=C(/C=C/c1ccccc1[N+](=O)[O-])Nc1ccccc1C(=O)NC(Cc1ccccc1)C(=O)O (racemic) |  |  | inhibition [6]: < 20%; inhibition (Cavia porcellus [4]): 46%
47 | O=C(CCc1ccccc1)Nc1ccccc1C(=O)NC(Cc1ccccc1)C(=O)O (racemic) |  |  | inhibition (Cavia porcellus [4]): 37%; inhibition [5]: < 20%
48 | O=C(Cc1c[nH]c2ccccc12)Nc1ccccc1C(=O)NC(Cc1ccccc1)C(=O)O (racemic) |  |  | inhibition (Cavia porcellus [4]): 23%; inhibition [5]: < 20%
49 | O=C(Cc1ccccc1)Nc1ccccc1C(=O)NC(Cc1ccccc1)C(=O)O (racemic) |  |  | inhibition (Cavia porcellus [4]): 36%; inhibition [5]: < 20%
50 | O=C(Nc1ccccc1C(=O)NC(Cc1ccccc1)C(=O)O)c1cc2cc(OCc3ccccc3)ccc2[nH]1 (racemic) |  |  | inhibition [10]: < 20%; inhibition (Cavia porcellus [8]): < 20%
51 | O=C(Nc1ccccc1C(=O)NC(Cc1ccccc1)C(=O)O)c1ccc2[nH]ccc2c1 (racemic) |  |  | inhibition [5]: 41%
52 | O=C(Nc1ccccc1C(=O)NC(Cc1ccccc1)C(=O)O)c1ccc[nH]1 (racemic) |  |  | inhibition [6]: < 20%
53 | O=C(Nc1ccccc1C(=O)NC(Cc1ccccc1)C(=O)O)c1ccccn1 (racemic) |  |  | inhibition [6]: < 20%; inhibition (Cavia porcellus [4]): 31%
54 | O=C(Nc1ccccc1C(=O)NC(Cc1ccccc1)C(=O)O)c1cccnc1 (racemic) |  |  | inhibition [6]: < 20%; inhibition (Cavia porcellus [4]): 44%
55 | O=C(Nc1ccccc1C(=O)NC(Cc1ccccc1)C(=O)O)c1ccco1 (racemic) |  |  | inhibition [6]: 24%; inhibition (Cavia porcellus [4]): 27%
56 | O=C(Nc1ccccc1C(=O)NC(Cc1ccccc1)C(=O)O)c1ccncc1 (racemic) |  |  | inhibition [6]: < 20%; inhibition (Cavia porcellus [4]): 26%
57 | O=C(Nc1ccccc1C(=O)NC(Cc1ccccc1)C(=O)O)c1cnccn1 (racemic) |  |  | inhibition [6]: < 20%; inhibition (Cavia porcellus [4]): < 20%
